# Experimental data as given in patent US7629141B2, “Essential and important genes of Pseudomonas aeruginosa and the use thereof to design or identify antibacterial agents” (priority 2001, dated 2009).
# Tests used:
# [1] = tested on: P. aeruginosa PA01
# Description: Polymixin B nonapeptide (Sigma) was prepared as a suspension in DMSO at 3 mg/ml final concentration. Erythromycin and Tetracycline were resuspended in DMSO to a final concentration of 250 mg/ml and 125 mg/ml, respectively. L-161,240 was prepared as above in DMSO to a final concentration of 10 mg/ml. These DMSO antibiotic solutions were individually added to LB to the appropriate final concentration and mixed. Polymixin B nonapeptide was then added to the appropriate samples and mixed. DMSO was added to each sample to keep the final concentration of DMSO equivalent between samples. A stationary phase overnight culture of PA01 was added to each sample to bring the final concentration to 0.1 OD600. Samples were removed for OD600 determinations every 1-2 hours for 6.5 hours and the data from these time points were plotted.
# In order to determine the effect of outer membrane exclusion of L-161,240, we exposed P. aeruginosa to PMBN in combination with L-161,240, and with other lipophilic antibiotics as positive controls.
# [2] = tested on: E. coli; settings: cited from earlier work
# [3] = tested on: P. aeruginosa; settings: cited from earlier work
# [4] = tested on: P. aeruginosa PAO 200 (MexAB-OprM efflux mutant); test: Growth curves with inhibitor, efflux pump mutant; assay type: cell-based; settings: FIG. 4
# Text: L-161, 240 is a substrate for the major drug efflux pump of P. aeruginosa. […] However the only one that is constitutively expressed to a high degree in the wild type strains is MexAB-OprM (Kohler, T., M. Michea-Hamzehpour, and U. Henze. 1997. Characterization of MexE-MexF-OprN, a positively regulated multidrug efflux system of Pseudomonas aeruginosa. Mol. Microbiol. 23: 345-354). Therefore, mutants of this efflux system can be used to evaluate the consequences of diminished efflux pump activity. These mutants would be expected to be highly sensitive to a number of antibiotics.
# [5] = tested on: 'promoter swapped' P. aeruginosa lpxC mutants; test: MIC determinations for 'promoter swapped' mutants; assay type: cell-based
# Description: MIC determinations for ‘promoter swapped’ mutants. Single colonies of DH5α, PA01 and each promoter swap strain were picked and grown in LB at 37° C. with shaking for approximately 4 hours. Assuming that an OD600 reading of 1.0 is equivalent to 10^9 cells/ml, dilutions were made of all cultures to 5×10^5 cells/ml. 200 μl of each diluted culture was added to each well where a two-fold serial dilution of inhibitor had been placed. The 96-well plates were incubated at 37° C. overnight and their OD600 determined using the Spectramax Plus (Molecular Devices) plate reader.
# To confirm the effect of the arabinose-sensitive promoter in regulating the lpxC expression in the swapped mutants, MIC determinations were performed as above, except that arabinose was added to induce expression of the chromosomal locus and override the effects of the plasmid borne lpxC. In this case the stationary-phase overnight bacterial culture was diluted to 5×10^5 cells/ml in LB containing Arabinose to a final concentration of 0.2% (a 20% stock made up in water).
# Using the ‘promoter swap’ technique as described in the methods, it was possible to replace expression from the wild type chromosomal copy of P. aeruginosa lpxC, with expression solely from a plasmid borne copy. […]
# [6] = biological target: LpxC from P. aeruginosa (Pseudomonas aeruginosa, UniProt P47205); settings: cited from earlier work
# [7] = tested on: E. coli JBK-1 carrying lpxC from E. coli; test: Growth at 42° C. of E. coli JBK-1 carrying the lpxC copy from E. coli; assay type: cell-based; settings: data not shown
# Description: (§1) Growth curves. Bacterial cultures were prepared by diluting stationary phase overnight cultures to an OD600 of 0.1 in 5 ml of LB. […] The cultures were incubated with shaking and 0.8 ml was taken for OD600 readings over the course of the experiment. DH5α, PA01, and PA0200 (Schweizer, H. P. 1998. Intrinsic resistance to inhibitors of fatty acid biosynthesis in Pseudomonas aeruginosa is due to efflux: application of a novel technique for generation of unmarked chromosomal mutations for the study of efflux systems. Antimicrob. Agents Chemother. 42: 394-398) were all grown at 37° C. In the cases where temperature sensitive JBK strains were being assayed, the cultures were grown at 42° C. for both the overnight and the time course cultures.
# (§2) The E. coli strain JBK-1/pKD6 contains the chromosomal lpxC gene disrupted with a kan element and a wild type copy of E. coli lpxC on the temperature-sensitive replicon pKD6. The strain was constructed as described by Sorensen et al., 1996. Since lpxC is essential for growth, this strain is not viable at 42° C. because the functional copy is on the temperature sensitive replicon.
# [8] = tested on: E. coli JBK-1 carrying lpxC from P. aeruginosa
# Description: as §1, §2
# [9] = tested on: P. aeruginosa PA01; test: Growth curves with inhibitor, P. aeruginosa wild type; assay type: cell-based
# Description: (§3) Growth curves. Bacterial cultures were prepared by diluting stationary phase overnight cultures to an OD600 of 0.1 in 5 ml of LB. The inhibitor, L-161,240, was resuspended in DMSO to a final concentration of 10 mg/ml and added to the bacterial cultures to a final concentration of 50 μg/ml or 10 μg/ml. In the samples without inhibitor, DMSO was added to keep the final concentration of DMSO equivalent between samples. The cultures were incubated with shaking and 0.8 ml was taken for OD600 readings over the course of the experiment.
# [10] = tested on: E. coli DH5α; test: Growth curves with inhibitor, E. coli; assay type: cell-based
# Description: as §3
# [11] = tested on: E. coli; settings: lethal intraperitoneal dose of E. coli; cited from earlier work
# [12] = tested on: EnvA1 mutant protein (LpxC, His 19 replaced by Serine); settings: His 19 replaced by a Serine; cited from earlier work
# [13] = biological target: E. coli LpxC enzyme (Escherichia coli, UniProt P0A725); settings: cited from earlier work
# E. coli LpxC enzyme, sequence (P0A725 whole entry): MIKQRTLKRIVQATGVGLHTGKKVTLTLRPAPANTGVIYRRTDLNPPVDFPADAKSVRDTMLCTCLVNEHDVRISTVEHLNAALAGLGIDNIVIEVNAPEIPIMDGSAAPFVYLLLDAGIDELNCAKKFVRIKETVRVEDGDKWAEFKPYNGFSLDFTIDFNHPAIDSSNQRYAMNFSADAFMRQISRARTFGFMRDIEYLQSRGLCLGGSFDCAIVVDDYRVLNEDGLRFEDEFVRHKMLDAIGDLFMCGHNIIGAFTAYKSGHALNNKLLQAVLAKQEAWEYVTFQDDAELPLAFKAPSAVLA
# LpxC from P. aeruginosa, sequence (P47205 whole entry): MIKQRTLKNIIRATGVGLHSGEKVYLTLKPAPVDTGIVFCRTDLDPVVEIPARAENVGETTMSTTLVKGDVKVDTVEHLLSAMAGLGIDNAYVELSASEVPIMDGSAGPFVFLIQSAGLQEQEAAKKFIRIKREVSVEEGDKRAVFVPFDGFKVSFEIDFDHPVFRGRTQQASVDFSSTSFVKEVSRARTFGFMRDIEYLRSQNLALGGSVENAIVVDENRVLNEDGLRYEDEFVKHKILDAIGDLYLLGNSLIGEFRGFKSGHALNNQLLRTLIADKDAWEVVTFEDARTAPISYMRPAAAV
structure (smiles),measurement,setting,value
CN(C)[C@@H]1C(O)=C(C(N)=O)C(=O)[C@@]2(O)C(O)=C3C(=O)c4c(O)cccc4[C@@](C)(O)[C@H]3C[C@@H]12 [tetracycline],lowering of MIC for P. aeruginosa by PMBN,[1],more than 16 fold
"CCCc1cc(C2=N[C@@H](C(=O)NO)CO2)cc(OC)c1OC [L-161,240]",minimal inhibitory concentration against E. coli,[2],about 1 microgram per milliliter
same,effect on bacterial growth of P. aeruginosa,[3],no effect on bacterial growth
same,sensitivity of efflux mutant PAO 200 compared with wild type,[4],not more sensitive
same,sensitivity of all promoter swap transformants with chromosomal lpxC induced,"[5]; LB containing 0.2% arabinose, vector with E. coli or P. aeruginosa lpxC",resistant to killing
same,sensitivity of P. aeruginosa expressing only E. coli LpxC versus wild type / P. aeruginosa enzyme,"[5]; promoter swap, native lpxC shut off, plasmid-borne E. coli lpxC, no arabinose",much more sensitive
same,inhibition of LpxC from P. aeruginosa,[6],"only at very high concentrations, and even then it did so poorly"
same,sensitivity of P. aeruginosa in combination with PMBN,[1],remained unchanged
same,sensitivity of JBK-1 carrying E. coli lpxC to killing,[7],still sensitive to killing by a slightly higher concentration
same,inhibitor concentration to which JBK-1 carrying P. aeruginosa lpxC is resistant,"[8]; 42° C., data not shown",> 50 µg/mL
same,resistance level relative to the MIC of the wild type organisms,[8]; JBK-1 carrying P. aeruginosa lpxC,about 50 times
same,prevention of growth of P. aeruginosa,[9],completely ineffective
same,prevention of growth of E. coli,[10],effective in preventing growth
same,outcome in mice infected with lethal dose of E. coli,[11],cured
O=C(O)CN(CCN(CC(=O)O)CC(=O)O)CC(=O)O [EDTA],sensitivity of envA1 mutant LpxC to EDTA,[12],sensitive
same,sensitivity of E. coli LpxC enzyme to EDTA,[13],not sensitive
same,EDTA concentration significantly inhibiting P. aeruginosa LpxC enzyme,[6],≤ 2 µM
